# In US12337010B2, “Compositions and methods of treatment using nicotinamide mononucleotide” (Washington University, priority 2017, dated 2025):
# Target: T1, Slc12a8 (Mus musculus, UniProt Q8VI23)
# T1 construct: NIH3T3 cells were transfected with 5 μg of pCXN2 carrying the full-length Slc12a8 cDNA (Slc12a8-OE); expressed in transfected cells
# T1 sequence (Q8VI23 1-705): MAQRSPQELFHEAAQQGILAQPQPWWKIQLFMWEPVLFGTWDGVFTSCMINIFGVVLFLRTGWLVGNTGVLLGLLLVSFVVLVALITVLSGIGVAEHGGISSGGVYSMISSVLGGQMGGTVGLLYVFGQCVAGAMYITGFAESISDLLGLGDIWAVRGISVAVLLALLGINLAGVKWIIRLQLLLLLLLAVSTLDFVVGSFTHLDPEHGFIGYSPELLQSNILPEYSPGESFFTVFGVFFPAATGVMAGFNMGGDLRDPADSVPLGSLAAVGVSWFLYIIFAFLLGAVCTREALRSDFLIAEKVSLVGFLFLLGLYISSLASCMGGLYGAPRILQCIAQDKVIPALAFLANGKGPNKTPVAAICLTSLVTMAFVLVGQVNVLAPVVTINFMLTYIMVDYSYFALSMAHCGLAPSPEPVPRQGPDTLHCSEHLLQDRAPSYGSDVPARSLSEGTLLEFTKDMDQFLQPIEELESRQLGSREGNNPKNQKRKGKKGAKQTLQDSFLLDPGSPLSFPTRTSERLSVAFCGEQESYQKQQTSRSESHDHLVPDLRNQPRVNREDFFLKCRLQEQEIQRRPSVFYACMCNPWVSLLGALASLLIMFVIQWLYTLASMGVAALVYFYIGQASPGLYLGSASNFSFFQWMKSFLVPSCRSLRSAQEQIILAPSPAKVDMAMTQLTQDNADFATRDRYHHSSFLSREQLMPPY
# Experiment: Radiolabeled NMN uptake in Slc12a8-OE and control NIH3T3 cells
# Format: cell-based
# Conditions: Slc12a8-OE NIH3T3 cells, 4 min, 37° C., control background subtracted
# Protocol: NMN uptake analyses with radiolabeled NMN. Control and Slc12a8-OE NIH3T3 cells were harvested by centrifugation (400×g, 5 min), washed once in HBSS, and incubated at 37° C. in HBSS [pH 7.5] (5×10^6 cells/ml) containing 100 nM 3H-β-Nicotinamide mononucleotide (9 Ci/mmol; Moravek Biochemicals, CA) and unlabeled NMN to make the final concentration 25 μM. At the designated time points (1, 3, 5 and 10 minutes), aliquots of the cells (100 μl) were collected and placed in 1.5-ml microcentrifuge tubes containing silicone-mineral oil (density, 1.015; Sigma-Aldrich) on the top of 2 M potassium hydroxide solution, followed by centrifugation at 16,000×g for 30s. Cells were separated from the buffer and pelleted through the silicone-mineral oil layer. The radioactivity in these cell pellets was determined by a liquid scintillation counter. For calculating Km and Vmax, the same conditions were used as described above, but with various total concentrations of NMN, ranging from 1 μM to 100 μM. At the 4-min time point, 100 μl of cell suspension was collected and pelleted in the same way described above. The radioactivity in cell pellets was determined by a liquid scintillation counter. The radioactivity measured in control NIH3T3 cells was subtracted to calculate Slc12a8-specific NMN uptake in Slc12a8-OE NIH3T3 cells.
# Uptake of NMN was measured as described in methods under “NMN uptake analyses with radiolabeled NMN” using 25 μM ^3H-NMN at 37° C. in control and Slc12a8-OE NIH3T3 cells over 10 min in Hanks' buffer [ph7.5] with Mg2+ and Ca2+ (n=12; analyzed by ANOVA with Sidak's test). […] This Km is qualitatively consistent with a detected range of NMN concentrations in mouse plasma and erythrocytes (Revollo, J. R. et al., Cell Metab., 6, 363-375, 2007; Ramsey, K. M., et al., Science, 324, 651-654, 2009; Yamada, K., et al., Anal. Biochem., 352, 282-285, 2006).
compound,measurement,value
"NC(=O)c1ccc[n+]([C@@H]2O[C@H](COP(=O)([O-])O)[C@@H](O)[C@H]2O)c1 [NMN, nicotinamide mononucleotide]",Km,34.1 ± 8.3 µM
same,Vmax,11.5 ± 1.2 pmol/min/mg
